Test results: patent US20060183773A1, “Uses of methylphenidate derivatives” (priority 2005, published 2006)
Like-named read-outs stand apart in the source and are kept apart here.

Legend:
Format in all cases: cell-based, human
TNFα = TNFα release by PBL, ELISA; settings: donor GR191; 5 μg/ml PHA, 72 h; Cpd II 15 and 50 μg/ml, Dex 10 μM; FIG. 7
Protocol: (§1) After this incubation, PHA was added to give a final concentration of 5 μg/ml, and the cells were incubated for an additional 72 hours at 37° C., 5% CO2. All cultures were performed in triplicate. Cells were then removed by centrifugation at 1000 rpm for 10 minutes.
The TNFα ELISA was performed as described in Example 2 using matched pair antibodies from Pierce Endogen (2 μg/ml for the coating antibody and 250 ng/ml for the second antibody).

T cells = test: CD69+TCR staining of PBL, flow cytometry (T-cell activation); settings: for CD69+TCR staining of PHA-stimulated cells: PHA alone 84%
Protocol: as §1
The cells were further analyzed by flow cytometry. Annexin was used to determine populations of dead or dying cells. Anti-CD69 antibody was used to establish the level of cellular activation. Antibody to T-cell receptor αβ (TCR) was also used. Recombinant Annexin 5 (PE and FITC conjugates) and the antibodies were all purchase from Caltag (Burlingham, Calif.) and used following the manufacturer's recommendations.

IL-8 = IL-8 release from LPS-stimulated THP-1 monocytes, ELISA; settings: for inhibition at 15 µg/mL: Homo sapiens, read-out: % Inhibition (IL-8)
Protocol: THP-1 is a monocyte cell line obtained from American Type Culture Collection (ATCC) (catalog no. TIB-202). […] After 1 hour, lipopolysaccharide (LPS) (obtained from Sigma) was added to the cultures to give a final concentration of 200 ng/ml, and the cells were then incubated for an additional 4 hours or for an additional 24 hours. After the incubation, the cells were centrifuged, and the supernatants were collected. The concentrations of IL-8 and TNFα in the supernatants were determined by ELISA.
The concentrations of IL-8 in the supernatants were determined by ELISA performed as described in Example 4.

RAP1 = test: Custom AntibodyArray, TRiPS cells: RAP1; settings: 15 μg/ml, 30 minutes
Protocol: (§2) Day 18 TRiPS cells, 1×10^6, were incubated for 30 minutes at 37° C., either with nothing added (“Nil”), with 1 μl CD3/CD28 Dynabeads (Dynal, Oslo, Norway) (“CD3/CD28 beads”) per 100,000 cells, or with CD3/CD28 beads and 15 μg/ml of the compound of formula II (Cpd II). After the incubation, the cells were lysed in Cell-Lytic Mammalian Cell Extraction Reagent (Sigma). After centrifugation to pellet cellular debris, the supernatants (cell extracts) were obtained.
(§3) The cell extracts (supernatants) were then analyzed using a Custom AntibodyArray™ manufactured by Hypromatrix Inc., Worcester, Mass., following the manufacturer's instructions. The Custom AntibodyArray™ is a nylon membrane blotted with antibodies to the proteins listed below. Briefly, the cell extracts were incubated with duplicate Custom AntibodyArray™'s for 2 hours at room temperature with slow shaking, followed by three washes with Tris buffer (150 mM NaCl, 25 mM Tris, 0.05% Tween-20, pH 7.5). HRP-labeled antibodies specific for phosphorylated-tyrosine, phosphorylated-serine and phosphorylated-threonine in Tris buffer were added, and the arrays incubated for 2 hours. After three more washes with Tris buffer, a peroxidase-reactive luminescent substrate was added. The arrays were visualized by exposure to X-ray film. Densitometry of the X-ray films was measured by scanning and computer analysis.

STAT4 = test: Custom AntibodyArray, TRiPS cells: STAT4; settings: 15 μg/ml, 30 minutes
Protocol: as §2, §3

PI3kinaseP85 = test: Custom AntibodyArray, TRiPS cells: PI3kinaseP85; settings: 15 μg/ml, 30 minutes
Protocol: as §2, §3

JNK1 = test: Custom AntibodyArray, TRiPS cells: JNK1; settings: 15 μg/ml, 30 minutes
Protocol: as §2, §3

JNK2 = test: Custom AntibodyArray, TRiPS cells: JNK2; settings: 15 μg/ml, 30 minutes
Protocol: as §2, §3

JNK3 = test: Custom AntibodyArray, TRiPS cells: JNK3; settings: 15 μg/ml, 30 minutes
Protocol: as §2, §3

IkB-r = test: Custom AntibodyArray, TRiPS cells: IkB-r; settings: 15 μg/ml, 30 minutes
Protocol: as §2, §3

IL-7y = test: Custom AntibodyArray, TRiPS cells: IL-7y; settings: 15 μg/ml, 30 minutes
Protocol: as §2, §3

VAV = test: Custom AntibodyArray, TRiPS cells: VAV; settings: 15 μg/ml, 30 minutes
Protocol: as §2, §3

HUVECs = test: Cell death of HUVECs in the TNFα/IL-8 experiment; settings: highest dose (30 μg/ml)
Protocol: Passage 4 HUVECs, human source lot number 8710 (obtained from ATCC), were put into the wells of a 24-well tissue culture plate at 5,000 cells/well in EGM-2 medium (obtained from Cambrex) and cultured for 72 hours at 37° C. and 5% CO2. […] After incubation for 1 hour at 37° C. and 5% CO2, TNFα (obtained from Pierce) was added to give a final concentration of 10 ng/ml, and the cells were incubated for an additional 18 hours at 37° C. and 5% CO2. After this incubation, the supernatants were collected, and the amount of IL-8 in the supernatants determined by ELISA as described in Example 4.

COC(=O)C(c1ccc(-c2ccccc2)cc1)C1CCCCN1 (stereo not shown) [Cpd II]
release of TNFα from PHA-stimulated PBL (TNFα): significantly inhibited the release of TNFα
CD69+TCR staining of PHA-stimulated cells (T cells; PHA 5 μg/ml plus 15 μg/ml): 64%
CD69+TCR staining of PHA-stimulated cells (T cells; PHA 5 μg/ml plus 50 μg/ml): 54%
CD69+TCR staining (activated T cells) (T cells; compound alone, no PHA): not detected
inhibition at 15 µg/mL (IL-8; THP-1, 4 h): 23%
inhibition at 15 µg/mL (IL-8; THP-1, 24 h): 33%
Mean IL-8 Concentration (IL-8; THP-1, LPS 200 ng/ml, 4 hours, Cpd II 15 μg/ml, Dex 10 μM, LPS alone 2844.60): 2185.00 ± 78.30 pg/mL
Mean IL-8 Concentration (IL-8; THP-1, LPS 200 ng/ml, 24 hours, Cpd II 15 μg/ml, Dex 10 μM, LPS alone 6653.20): 4490.20 ± 264.46 pg/mL
release of IL-8 from LPS-stimulated monocytes (in words) (IL-8; THP-1, LPS 200 ng/ml, Cpd II 15 μg/ml, Dex 10 μM): significantly inhibited the release of IL-8
Effect of Cpd II on the protein in CD3/CD28 stimulated TRiPS cells (RAP1): Activated
Effect of Cpd II on the protein in CD3/CD28 stimulated TRiPS cells (STAT4): Activated
Effect of Cpd II on the protein in CD3/CD28 stimulated TRiPS cells (PI3kinaseP85): Activated
Effect of Cpd II on the protein in CD3/CD28 stimulated TRiPS cells (JNK1): Decreased level back to basal levels (Nil control)
Effect of Cpd II on the protein in CD3/CD28 stimulated TRiPS cells (JNK2): Decreased level back to basal levels (Nil control)
Effect of Cpd II on the protein in CD3/CD28 stimulated TRiPS cells (JNK3): Decreased level back to basal levels (Nil control)
Effect of Cpd II on the protein in CD3/CD28 stimulated TRiPS cells (IkB-r): Decreased level back to basal levels (Nil control)
Effect of Cpd II on the protein in CD3/CD28 stimulated TRiPS cells (IL-7y): Decreased level back to basal levels (Nil control)
Effect of Cpd II on the protein in CD3/CD28 stimulated TRiPS cells (VAV): No effect
cell death (HUVECs): some cell death
